US12129265B2, “Therapeutic agents and uses thereof” (Ankh Life Sciences Limited, priority 2020, dated 2024)

Columns and labels:
Experiment in all cases: CellTiter-Glo in vitro cell proliferation assay, Example 8
RXF-393 cells = format: cell-based; conditions: Homo sapiens; RXF-393, Renal, 72 hours; read-out: Mean IC50
Description: (§1) In this Example, in vitro cell proliferation assays were performed using: (1) Human Myeloma tumor cell lines; (2) Human Lymphoma tumor cell lines; (3) Solid Human tumor cell lines; and (4) Parental, Lenalidomide resistant and Bortezomib resistant Jeko-1 Mantle cell Lymphoma tumor cell lines. The compounds tested were three diharmaline compounds, namely the 518B562 (or simply 562), 560, and 561 compounds. In addition, a monoharmaline product designated as 518F014 was also tested. This monoharmaline product had the following structure:
(§2) Each proliferation assay was carried out as follows. The test cells were plated in growth media using a 384-well microtiter plate at 50 μL volume. The cells were incubated for 24 hours at 37° C. in a humidified incubator. After 24 hours of incubation, the test compounds were added to the test wells in DSMO solvent, at concentrations ranging from 0.0075-100 μM. Control wells received equal volumes of DSMO, without compound. Following drugging, the cells were incubated for 72 hours at 37° C. in a humidified incubator. After this exposure, 100 μL of a 1:1 mixture of sterile water and CellTiter-Glo® reagent (Promega) was added to each well. The plates were then incubated for 60 minutes at room temperature, followed by recording the luminescence value of each well using a luminometer as a measure of cell proliferation.

SU-DHL-6 cells = format: cell-based; conditions: Homo sapiens; SU-DHL-6, Diffuse Large B-Cell Lymphoma, 72 hours; read-out: Mean IC50
Description: as §1, §2

N87 cells = format: cell-based; conditions: Homo sapiens; N87, Gastric, 72 hours; read-out: Mean IC50
Description: as §1, §2

SU-DHL-4 cells = format: cell-based; conditions: Homo sapiens; SU-DHL-4, Diffuse Large B-Cell Lymphoma, 72 hours; read-out: Mean IC50
Description: as §1, §2

A498 cells = format: cell-based, Human; conditions: Homo sapiens; A498, Renal, 72 hours; read-out: Mean IC50
In short: (§3)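 24 h pre-incubation of plated cells at 37 °C; compound 0.0075–100 μM in DMSO; 72 h exposure at 37 °C; CellTiter-Glo, 60 min RT; luminescence read. Vehicle controls: DMSO alone.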

HEC-1a cells = format: cell-based, Human; conditions: Homo sapiens, Endometrial, 72 hours, read-out: Mean IC50
In short: as §3

MM.1s cells = format: cell-based, Human; conditions: MM1.S; MM.IS, Human Myeloma, 72 hours; read-out: Mean IC50
In short: as §3

KHM-1B cells = format: cell-based, Human; conditions: Human Myeloma, 72 hours, read-out: Mean IC50
In short: as §3

SiHA cells = format: cell-based, Human; conditions: Homo sapiens, Squamous, 72 hours, read-out: Mean IC50
In short: as §3

A2780 cells = format: cell-based, Human; conditions: Homo sapiens; A2780, Ovarian, 72 hours; read-out: Mean IC50
In short: as §3

MIA PaCa-2 cells = format: cell-based, Human; conditions: Homo sapiens; MIA PaCa-2, Pancreatic, 72 hours; read-out: Mean IC50
In short: as §3

KMS-11 cells = format: cell-based, Human; conditions: KMS-11, Human Myeloma, 72 hours; read-out: Mean IC50
In short: as §3

ASPC-1 cells = format: cell-based, Human; conditions: Homo sapiens, ASPC1; ASPC-1, Pancreatic, 72 hours; read-out: Mean IC50
In short: as §3

AN3CA cells = format: cell-based, Human; conditions: Homo sapiens, AN3-CA, Endometrial, 72 hours, read-out: Mean IC50
In short: as §3

H929 cells = format: cell-based, Human; conditions: NCI-H929; H929, Human Myeloma, 72 hours; read-out: Mean IC50
In short: as §3

L363 cells = format: cell-based, Human; conditions: L-363; L363, Human Myeloma, 72 hours; read-out: Mean IC50
In short: as §3

KMM-1 cells = format: cell-based, Human; conditions: KMM-1, Human Myeloma, 72 hours; read-out: Mean IC50
In short: as §3

FaDu cells = format: cell-based, Human; conditions: Homo sapiens, Squamous, 72 hours, read-out: Mean IC50
In short: as §3

H1975 (EGFR mut) cells = format: cell-based, Human; conditions: Homo sapiens, NCI-H1975, Non Small Cell Lung, 72 hours, read-out: Mean IC50
In short: as §3

MDA-MB-468 cells = format: cell-based, Human; conditions: Homo sapiens; MDA-MB-468, Triple Negative Breast, 72 hours; read-out: Mean IC50
In short: as §3

JIM1 cells = format: cell-based, Human; conditions: JIM1, Human Myeloma, 72 hours; read-out: Mean IC50
In short: as §3

DOHH-2 cells = format: cell-based, Human; conditions: Homo sapiens; DOHH-2, Diffuse Large B-Cell Lymphoma, 72 hours; read-out: Mean IC50
In short: as §3

MDA-MB-231 cells = format: cell-based, Human; conditions: Homo sapiens; MDA-MB-231, Triple Negative Breast, 72 hours; read-out: Mean IC50
In short: as §3

HCC70 cells = format: cell-based, Human; conditions: Homo sapiens; HCC70, Triple Negative Breast, 72 hours; read-out: Mean IC50
In short: as §3

KMS-34 cells = format: cell-based, Human; conditions: KMS-34, Human Myeloma, 72 hours; read-out: Mean IC50
In short: as §3

Compound | IC50 (RXF-393 cells) [µM] | IC50 (SU-DHL-6 cells) [µM] | IC50 (N87 cells) [µM] | IC50 (SU-DHL-4 cells) [µM] | IC50 (A498 cells) [µM] | IC50 (HEC-1a cells) [µM] | IC50 (MM.1s cells) [µM] | IC50 (KHM-1B cells) [µM] | IC50 (SiHA cells) [µM] | IC50 (A2780 cells) [µM] | IC50 (MIA PaCa-2 cells) [µM] | IC50 (KMS-11 cells) [µM] | IC50 (ASPC-1 cells) [µM] | IC50 (AN3CA cells) [µM] | IC50 (H929 cells) [µM] | IC50 (L363 cells) [µM] | IC50 (KMM-1 cells) [µM] | IC50 (FaDu cells) [µM] | IC50 (H1975 (EGFR mut) cells) [µM] | IC50 (MDA-MB-468 cells) [µM] | also measured
COc1ccc2c3c([nH]c2c1)C(CC(CC1=NCCc2c1[nH]c1cc(OC)ccc21)c1ccccc1)=NCC3 [compound 560] | 5.4 | 3.52 | 3.71 | 3.68 | 3.34 | 5.1 | 2.26 | 7.58 | 11.6 | 2.03 | 3.38 | 4.95 | 3.62 | 2.71 | 4.3 | 5.27 | 5.3 | 2.05 | 4.27 | 3.75 | IC50 (JIM1 cells): 5.17 µM; IC50 (DOHH-2 cells): 6.39 µM; IC50 (MDA-MB-231 cells): 3.89 µM; IC50 (HCC70 cells): 5.94 µM; IC50 (KMS-34 cells): 6.67 µM
COc1ccc2c3c([nH]c2c1)C(CC(CC1=NCCc2c1[nH]c1cc(OC)ccc21)c1ccc(O)c(OC)c1)=NCC3 [compound 562] | 1.79 | 0.819 | 1.85 | 1.81 | 1.76 | 4.75 | 1.67 | 3.37 | 5.13 | 1.14 | 1.81 | 4.93 | 2.15 | 1.79 | 4.5 | 2 | 4.04 | 1.98 | 1.84 | 2.05 | IC50 (JIM1 cells): 3.95 µM; IC50 (DOHH-2 cells): 2.42 µM; IC50 (MDA-MB-231 cells): 1.62 µM; IC50 (HCC70 cells): 3.45 µM; IC50 (KMS-34 cells): 5.45 µM
